According to PubChem BioAssay (NCI):
Several values for one entry are separate records, joined by “and”; a condition that tells them apart may be missing. Identical values can stand only once.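 Test compounds were applied to cells in 96-well plates for 48 hours at 5 doses. GI50: concentration for 50% inhibition of growth. TGI denotes the concentration required for complete inhibition of growth.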

What was measured:
Experiment in all cases: inhibition of tumour cell growth, NCI panel, 48 h
SK-MEL-28 melanoma = tested on: SK-MEL-28 melanoma
M14 melanoma = tested on: M14 melanoma
MDA-MB-435 = tested on: MDA-MB-435
RPMI-8226 leukemia = tested on: RPMI-8226 leukemia
LOX IMVI melanoma = tested on: LOX IMVI melanoma
RXF 393 renal = tested on: RXF 393 renal
NCI-H226 lung = tested on: NCI-H226 lung
786-0 renal = tested on: 786-0 renal
HT29 colon = tested on: HT29 colon
SK-OV-3 ovarian = tested on: SK-OV-3 ovarian

| Compound | GI50 (SK-MEL-28 melanoma) | TGI (SK-MEL-28 melanoma) | GI50 (M14 melanoma) | TGI (M14 melanoma) | GI50 (MDA-MB-435) | TGI (MDA-MB-435) | GI50 (RPMI-8226 leukemia) | TGI (RPMI-8226 leukemia) | GI50 (LOX IMVI melanoma) | TGI (LOX IMVI melanoma) | GI50 (RXF 393 renal) | TGI (RXF 393 renal) | GI50 (NCI-H226 lung) | TGI (NCI-H226 lung) | GI50 (786-0 renal) | TGI (786-0 renal) | GI50 (HT29 colon) | TGI (HT29 colon) | GI50 (SK-OV-3 ovarian) | TGI (SK-OV-3 ovarian) |
| --- | --- | --- | --- | --- | --- | --- | --- | --- | --- | --- | --- | --- | --- | --- | --- | --- | --- | --- | --- | --- |
| Cc1ccc(C2=C(c3ccc(C)cc3)C3(c4ccc(C)cc4)C4C(=O)c5ccccc5C(=O)C4C2(c2ccc(C)cc2)S3=O)cc1 (stereo not given) | 60.6 µM | > 100 µM | > 100 µM | > 100 µM | > 100 µM | > 100 µM | > 100 µM | > 100 µM | > 100 µM | > 100 µM | 94.4 µM | > 100 µM | > 100 µM | > 100 µM | 69.5 µM | > 100 µM | > 100 µM | > 100 µM | > 100 µM | > 100 µM |
| COc1cc2ncnc(Nc3ccc4c(cnn4Cc4ccccc4)c3)c2cc1OC | > 25 µM | > 25 µM | > 25 µM | > 25 µM | > 25 µM | > 25 µM | 11.2 µM | > 25 µM | > 19.4 µM | > 25 µM | 8.92 µM | > 25 µM | > 25 µM | > 25 µM | 16.7 µM | > 25 µM | 8.77 µM | > 25 µM | 0.534 µM | > 25 µM |
| C/C=C/[C@H]1O[C@@H]2C(=C[C@H]1O)C(=O)O[C@H]2C | 0.786 µM | 12.1 µM | 14.7 µM | 30.6 µM | 21.9 µM | 43.5 µM | 2.74 µM | 8.85 µM | 15 µM | 31.5 µM | 18.9 µM | 67.7 µM | 18.4 µM | 48.1 µM | 13.8 µM | 28.7 µM | 2.19 µM | 27.4 µM | > 50.2 µM | > 66.7 µM |
| CCOC(=O)c1oc2ccc([N+](=O)[O-])c3c2c1CCC3 |  | > 100 µM |  | > 100 µM |  | > 55.5 µM |  | > 100 µM |  | > 88.1 µM |  | 59.6 µM |  | > 100 µM |  | 84.9 µM |  | > 100 µM |  | > 46.3 µM |
| C[n+]1c(-c2ccc(/C=N/NC(=O)c3ccc(C(=O)N/N=C/c4ccc(-c5cn6ccccc6[n+]5C)cc4)cc3)cc2)cn2ccccc21 | 258 µM | 406 µM | 623 µM | > 1000 µM | > 1000 µM | > 1000 µM | 121 µM | 306 µM | 846 µM | > 1000 µM | 174 µM | > 87.2 µM and 312 µM | 124 µM | 283 µM | 126 µM | 53.7 µM and 252 µM | 137 µM | 266 µM | 281 µM | 494 µM |
| COc1cc(-c2cc(/C=C/C(=O)c3ccc(Cl)c(Cl)c3)[nH]n2)cc(OC)c1OC | 18.1 µM | 66 µM | 18.2 µM | > 100 µM | 5.65 µM | > 100 µM | 0.538 µM | 6.73 µM | 3.39 µM | 16.4 µM | 2.7 µM | 12.8 µM | 18.6 µM | > 100 µM | 10.1 µM | 68 µM | 11.5 µM | > 100 µM | 4.19 µM | 18.8 µM |
| CC(C)n1nc(-c2ccc3oc(N)nc3c2)c2c(N)ncnc21 | < 0.0108 µM | 0.189 µM | < 0.01 µM | 0.522 µM and 0.678 µM | < 0.0125 µM and 0.0138 µM | 0.403 µM and 0.11 µM | < 0.01 µM | 1.1 µM and 3.68 µM | 0.0127 µM and 0.0174 µM | 1.33 µM and 1.64 µM | < 0.01 µM | 0.043 µM and 0.0533 µM | < 0.01 µM | 0.371 µM and 0.231 µM | 0.0146 µM and 0.0266 µM | 0.4 µM and 1.41 µM | 0.0272 µM | 10.8 µM and 5.32 µM | < 0.01 µM | 0.049 µM and 0.0548 µM |
| Cn1c2ccccc2c2c3[nH][nH]c(=O)c3c3c4ccccc4[nH]c3c21 | 3.74 µM | 12.9 µM | 3.05 µM | 10 µM | 2.03 µM | 11.1 µM | 2.96 µM | 9.2 µM | 1.09 µM | 6.62 µM | 1.51 µM | 3.57 µM | 2.34 µM | 22.6 µM | 3.06 µM | 31.6 µM | 3.13 µM | 50.8 µM | 3.46 µM | 64.8 µM |
| COCCN1CCN(Cc2ccc(-c3n[nH]c4c3C(=O)c3c(NC(=O)NN5CCOCC5)cccc3-4)cc2)CC1 | 0.0246 µM | 0.471 µM | 0.0296 µM | 0.38 µM | 0.0227 µM | 0.424 µM | 0.0288 µM | 0.0833 µM | 0.0185 µM | 0.12 µM | 0.0189 µM | 0.0458 µM | 0.0329 µM | > 2.46 µM | 0.0336 µM | > 10 µM | 0.0347 µM | 0.299 µM | 0.0457 µM | > 9.41 µM |
| Oc1cccc(/C=N/Nc2nnc(N/N=C/c3cccc(O)c3)c3ccccc23)c1 |  | 60.2 µM |  | > 100 µM |  | 81 µM |  | 92.2 µM |  | 34.1 µM |  | > 100 µM |  | 30.7 µM |  | 38.5 µM |  | > 100 µM |  | > 100 µM |
| C/C(=N\N=C(\[Se])N(C)C)c1ccccn1 |  | 18.9 µM |  | 3.24 µM |  | 16.6 µM |  | 53.2 µM |  | 12.8 µM |  | 6.23 µM |  | 5.27 µM |  | 18.3 µM |  | 14.2 µM |  | 10.2 µM |
| Nc1nc(N)c2c(n1)NC(c1ccccc1)C1CCc3ccccc3C1=N2 (stereo not given) | 7.72 µM | 20.2 µM | 4.88 µM | 18 µM | 2.93 µM | 12.6 µM | 3.21 µM | 87.1 µM | 3.79 µM | 15.1 µM | 4.89 µM | 19 µM | 5.96 µM | 28.9 µM | 5.99 µM | 19.1 µM | 3.66 µM | 14.4 µM | 10.3 µM | 22.7 µM |
